According to ChEMBL document CHEMBL3132853, “Facile synthesis of a polyether-tethered dimeric berberine as a highly effective DNA-cleaving agent in the presence of Cu(ii) ion” (Medchemcomm, 2013):
The source made the active and inactive calls. The calls are words filed in the database; no cut-off is given here.

Tests used:
DNA [1] = assay: Binding affinity to calf thymus DNA; assay type: nucleic-acid assay; conditions: Bos taurus
Escherichia coli [2] = assay: Induction of Escherichia coli pBR322 DNA cleavage assessed as conversion of supercoiled form into open circular form after 5 hrs by agarose gel electrophoresis in presence of Cu2+
Escherichia coli [3] = assay: Induction of Escherichia coli pBR322 DNA cleavage at 0.06 mM after 5 hrs by agarose gel electrophoresis in presence of Cu2+ and KI
Escherichia coli [4] = assay: Induction of Escherichia coli pBR322 DNA cleavage at 0.06 mM after 5 hrs by agarose gel electrophoresis in presence of Cu2+ and t-BuOH
Escherichia coli [5] = assay: Induction of Escherichia coli pBR322 DNA cleavage at 0.06 mM after 5 hrs by agarose gel electrophoresis in presence of Cu2+ and DMSO
Escherichia coli [6] = assay: Induction of Escherichia coli pBR322 DNA cleavage at 0.06 mM after 5 hrs by agarose gel electrophoresis in presence of Cu2+ and TMP
DNA [7] = assay: Binding affinity to calf thymus DNA in presence of Cu2+; assay type: nucleic-acid assay; conditions: Bos taurus
Escherichia coli [8] = assay: Induction of Escherichia coli pBR322 DNA cleavage assessed as maximal catalytic rate constant at 0.12 mM by agarose gel electrophoresis in presence of Cu2+
Escherichia coli [9] = assay: Induction of Escherichia coli pBR322 DNA cleavage at 0.08 mM after 5 hrs by agarose gel electrophoresis
Escherichia coli [10] = assay: Induction of Escherichia coli pBR322 DNA cleavage at 0.01 to 0.08 mM after 5 hrs by agarose gel electrophoresis in presence of Cu2+
Escherichia coli [11] = assay: Induction of Escherichia coli pBR322 DNA cleavage at Cu2+ to compound ratio >= 1 after 5 hrs by agarose gel electrophoresis
Escherichia coli [12] = assay: Induction of Escherichia coli pBR322 DNA cleavage assessed as conversion of supercoiled form into linear form after 5 hrs by agarose gel electrophoresis in presence of Cu2+
Escherichia coli [13] = assay: Induction of Escherichia coli pBR322 DNA cleavage assessed as conversion of supercoiled form into open circular form after 5 hrs by agarose gel electrophoresis in presence of Ni2+
Escherichia coli [14] = assay: Induction of Escherichia coli pBR322 DNA cleavage assessed as conversion of supercoiled form into open circular form after 5 hrs by agarose gel electrophoresis in presence of Mn2+
Escherichia coli [15] = assay: Induction of Escherichia coli pBR322 DNA cleavage assessed as conversion of supercoiled form into open circular form after 5 hrs by agarose gel electrophoresis in presence of Zn2+
Escherichia coli [16] = assay: Induction of Escherichia coli pBR322 DNA cleavage assessed as conversion of supercoiled form into open circular form after 5 hrs by agarose gel electrophoresis in presence of Mg2+
Escherichia coli [17] = assay: Induction of Escherichia coli pBR322 DNA cleavage assessed as conversion of supercoiled form into open circular form after 5 hrs by agarose gel electrophoresis in presence of Co2+

## COc1ccc2cc3[n+](cc2c1OCCCOc1c(OC)ccc2cc4[n+](cc12)CCc1cc2c(cc1-4)OCO2)CCc1cc2c(cc1-3)OCO2
DNA [1]
  K: 1.15 ×10⁵ /M
Escherichia coli [2]
  Activity: inactive

## COc1ccc2cc3[n+](cc2c1OC)CCc1cc2c(cc1-3)OCO2
DNA [1]
  K: 8.99 ×10³ /M

## COCCOCCOCCOCCOc1c(OC)ccc2cc3[n+](cc12)CCc1cc2c(cc1-3)OCO2
DNA [1]
  K: 1.46 ×10³ /M
Escherichia coli [2]
  Activity: inactive

## COc1ccc2cc3[n+](cc2c1OCCOCCOCCOCCOc1c(OC)ccc2cc4[n+](cc12)CCc1cc2c(cc1-4)OCO2)CCc1cc2c(cc1-3)OCO2
Escherichia coli [3]
  Activity: inactive
Escherichia coli [4]
  Activity: Active
Escherichia coli [5]
  Activity: Active
Escherichia coli [6]
  Activity: Active
DNA [7]
  K: 2.38 ×10⁴ /M
DNA [1]
  K: 1.51 ×10⁴ /M
Escherichia coli [8]
  Kmax: 125 h⁻¹
Escherichia coli [9]
  Activity: inactive
Escherichia coli [10]
  Activity: Active
Escherichia coli [11]
  Activity: Active
Escherichia coli [12]
  Activity: Active
Escherichia coli [2]
  Activity: Active
Escherichia coli [13]
  Activity: inactive
Escherichia coli [14]
  Activity: inactive
Escherichia coli [15]
  Activity: inactive
Escherichia coli [16]
  Activity: inactive
Escherichia coli [17]
  Activity: inactive
